Assay results taken from BigSolDB 2.1.

Cc1cnc(C(=O)O)cn1
solubility (mole fraction)
Conditions	273.15 K	278.15 K	283.15 K	288.15 K	293.15 K	298.15 K	303.15 K	308.15 K	313.15 K
in 1,4-dioxane	–	–	–	1.88e-05	2.16e-05	2.48e-05	2.84e-05	3.29e-05	3.84e-05
in 2-butanone	5.8e-06	6.8e-06	8e-06	9.3e-06	1.06e-05	1.21e-05	1.39e-05	1.58e-05	1.79e-05
in acetone	6.7e-06	8e-06	9.3e-06	1.07e-05	1.21e-05	1.39e-05	1.56e-05	1.78e-05	2e-05
in acetonitrile	2.48e-06	2.92e-06	3.44e-06	4.01e-06	4.6e-06	5.34e-06	6.05e-06	6.88e-06	7.79e-06
in ethanol	1.09e-05	1.27e-05	1.49e-05	1.71e-05	1.97e-05	2.25e-05	2.57e-05	2.93e-05	3.33e-05
in ethyl acetate	4.31e-06	5.04e-06	5.82e-06	6.63e-06	7.5e-06	8.4e-06	9.45e-06	1.07e-05	1.2e-05
in isopropanol	7.8e-06	9.1e-06	1.04e-05	1.19e-05	1.36e-05	1.56e-05	1.78e-05	2.03e-05	2.28e-05
in methanol	8.5e-06	1e-05	1.16e-05	1.36e-05	1.56e-05	1.77e-05	2.01e-05	2.29e-05	2.57e-05
in n-butanol	9.4e-06	1.08e-05	1.25e-05	1.43e-05	1.65e-05	1.9e-05	2.19e-05	2.51e-05	2.87e-05
in n-propanol	1e-05	1.17e-05	1.36e-05	1.58e-05	1.82e-05	2.07e-05	2.34e-05	2.68e-05	3.06e-05
in toluene	9.7e-07	1.1e-06	1.25e-06	1.42e-06	1.65e-06	1.89e-06	2.18e-06	2.5e-06	2.89e-06
in water	3.32e-06	3.83e-06	4.46e-06	5.16e-06	5.86e-06	6.74e-06	7.7e-06	8.83e-06	1.01e-05
